# From article PMC10347550, “Cyclic Ruthenium-Peptide Conjugates as Integrin-Targeting Phototherapeutic Prodrugs for the Treatment of Brain Tumors” (Journal of the American Chemical Society, 2023)
# Like-named read-outs stand apart in the source and are kept apart here.
# Tests used:
# U87MG spheroids = assay: 3D tumor spheroid viability assay, CellTiter-Glo 3D; assay type: cell-based, human; conditions: U87MG 3D spheroids; for EC50: CellTiter-Glo 3D at 96 h, n = 3
# Protocol: The spheroids were incubated further under normoxia. […] After 30 min of shaking on an IKA Vibrax shaker at 500 rpm at room temperature, the luminescence in each well was measured with a Tecan microplate reader. […] All experiments were conducted in three biologically independent replicates.
# [1] = system: ITGAV knockdown U87MG cells (U87MG-kd); assay: Cellular Ru uptake by ICP-MS, 2 h; assay type: cell-based, human; conditions: 10 μM, dark, normoxia, n = 3
# Protocol: The uptake studies in U87MG and U87MG-kd cell lines were conducted as follows: 2 × 10^5 cells were cultured in 6-well plates for 24 h in Opti-MEM (2 mL), after which cells were incubated with Δ-[1]Cl2 or Δ-[3]Cl2 (10 μM) for 2 h, washed with cold PBS twice, harvested, concentrated in 200 μL of PBS, and counted using trypan blue and a cell counter (Bio-Rad). Finally, cell pellets were collected in 1.5 mL Eppendorf tubes after removing additional PBS by centrifuging at 500g; 0.25 mL of 65% HNO3 was then added to each tube, and all tubes were kept at room temperature (RT) overnight. The cell lysates were transferred to 15 mL centrifuge tubes (Biologix) and filled with 4.75 mL of MilliQ H2O.
# The ruthenium concentration was measured in each sample by ICP-MS (NexION 2000, PerkinElmer), providing the metal content in each well in ppb. Combining the cell numbers and Ru uptake, averaging over technical triplicates, the ruthenium uptake values were finally expressed in μg Ru/million cells.
# [2] = Octanol-water partition coefficient (log P); assay type: physicochemical; conditions: shake-flask, octanol-saturated water / water-saturated octanol, shaken 24 h in the dark, room temperature; Ru in water phase by ICP-MS; ± SD from 4 concentration points
# Protocol: Each complex was first dissolved in octanol-saturated water (0.5 mM, 500 μL) and centrifuged (2000 rpm, 5 min) to isolate the undissolved solid. 450 μL of the supernatant was taken out as the stock solution; after that, 5, 10, 50, 100, and 150 μL of solution were added to the 15 mL tube, and more octanol-saturated water was added to adjust the final volume to 1 mL. 1 mL of water-saturated octanol was added further, and the tubes were mildly shaken (Gesellschaft für Labortechnik mbH, type3016) for 24 h under dark conditions. After that, the solutions were centrifuged for 5 min at 2000 rpm at room temperature, and 0.5 mL of the water phase (below phase) was moved to a 15 mL centrifuge tube by an Eppendorf pipette. Then, 0.1 mL of 65% HNO3 was added into the tube using an organic pipette gun, and each solution was shaken for 1 h. 9.9 mL of MilliQ water was added into each tube, making a total volume of 10 mL. To detect the Ru content of the stock solution, 10 μL of each stock solution was mixed with 0.490 mL of 65% HNO3, and the mixture was shaken for 1 h. Then, […] of MilliQ water was added to the tube, making a total volume of 10 mL. ICP-MS measurement was performed using a NexION 2000 from PerkinElmer. The ruthenium content in each well was obtained in ppb. The partition coefficients (log P) were calculated using the following eq 3 [drawing 3] 3
# where [complex]total is the concentration of the complex in the control sample (where no water-saturated octanol was added) and [complex]water is the concentration of the complex in the aqueous layer.
# [3] = Dark stability by UV-vis spectroscopy; assay type: physicochemical; conditions: 24 h
# U87MG cells = assay: Apopxin/Nuclear Green DCS1 double-staining cell death mode study; assay type: cell-based, human; conditions: 20 μM, 24 h incubation, 1 h after green light (13.1 J/cm^2), flow cytometry
# Protocol: After 24 h of incubation, one plate labeled light was irradiated for 20 min using 520 nm green light (13.1 J/cm^2), and then both plates were allowed to incubate further for 1, 2, 6, or 24 h in a normoxia incubator. After incubation, the cells were trypsinized, collected, and washed with cold PBS twice. […] Cells after staining were detected by flow cytometry (CytoFLEX flow cytometer) immediately. Control groups with only assay buffer, only buffer and Apopxin Deep Red Indicator, only buffer and Nuclear Green DCS1, and all three were included to be used for gating during data analysis. Parameters APC (638 nm excitation, 660/10 nm emission) and FITC (488 nm excitation, 525/40 nm emission) were used considering their similar excitation/emission wavelength with two detectors Apopxin Deep Red Indicator, Ex/Em = 630/660 nm (apoptosis), and Nuclear Green DCS1, Ex/Em = 490/520 nm (necrosis).
# [4] = 21% O2, dark, 24 h treatment, read-out: EC50,dark
# [5] = 21% O2, green light after 24 h treatment, read-out: EC50,light
Substance,"PI (EC50,dark/EC50,light) (U87MG spheroids; 21% O2)",EC50 (U87MG spheroids; [4]),EC50 (U87MG spheroids; [5]),uptake amount compared to U87MG-wt cells [1],log P (octanol-water partition coefficient) [2],"dark stability, absorbance spectra ([3]; 50 μM in Opti-MEM containing 2.5% FCS, UV-vis)",intensity of the UV-vis spectrum ([3]; 50 μM in Opti-MEM deprived of FCS),cell death mode (U87MG cells)
"[Ru(Ph2phen)2(κ^S,κ^N-(Ac-MRGDH-NH2))]Cl2 (sidechain bridge or staple) [Δ-[1]Cl2] [cyclic ruthenium-peptide conjugate, Ac-MRGDH-NH2 coordinated via Met S and His N]",4.2,46 µM,10.9 µM,significantly decreased,0.00 ± 0.02,did not show any variation for 24 h,"gradually decreased, suggesting precipitation",died mainly via necrosis
"[Ru(Ph2phen)2(κ^S,κ^N-(Ac-MRGDH-NH2))]Cl2 (sidechain bridge or staple) [Λ-[1]Cl2] [cyclic ruthenium-peptide conjugate, Ac-MRGDH-NH2 coordinated via Met S and His N]",4.9,37 µM,7.6 µM,–,−0.03 ± 0.02,–,–,died mainly via necrosis
